{"source": "patent US20140370129A1", "about": "“DOSING REGIMEN AND METHOD FOR TREATING CANCER USING A COIX SEED OIL EMULSION” (Zhejiang Kanglaite Group Co., Ltd., priority 2013, published 2014)", "key": {"[1]": {"tested_on": "pancreatic cancer", "details": "human, in vivo; cited from earlier work"}, "[2]": {"tested_on": "metastatic pancreatic adenocarcinoma", "details": "not previously treated with chemotherapy; cited from earlier work"}, "[3]": {"tested_on": "locally advanced or metastatic pancreatic cancer", "assay": "Phase 2b study of Kanglaite Injection plus gemcitabine vs gemcitabine alone", "type": "in vivo", "source_text": "Efficacy of the treatment may be monitored, for example, by CT scans of the patients to determine growth or progression of the tumor, or Karnofsky performance. The Karnofsky Performance Scale Index allows patients to be classified on a scale of 0 to 100 as to their functional impairment, with zero indicating death and 100 indicating no patient complaints and no evidence of disease. The primary efficacy outcome measure for the efficacy trial described in Example 2 was Progression Free Survival (PFS). PFS includes patient deaths and assumes that death is related to progression of cancer, a reasonable assumption with pancreatic cancer. PFS is defined as the time interval from randomization to objective tumor progression or death.\nAs shown in Example 2, efficacy of the treatment was evaluated in part using RECIST 1.1 RECIST refers to the Response Evaluation Criteria for Solid Tumors assessment tool an involves measuring tumors (lesions) in patient using, for example, CT or MRI. As noted above, RECIST Version 1.1 was utilized in evaluating patient responses.\nA phase 2b, multi-center, randomized, open-label clinical trial compared the effect of gemcitabine in combination with KLTi to gemcitabine alone in patients with locally advanced or metastatic pancreatic cancer, not amenable to curative surgical resection.\nA total of 41 patients were randomized to Cohort 1 with 38 included in the safety population, specifying all patients who received at least one dose of study drug. Thirty-seven of the 38 patients had been diagnosed as having Stage IV pancreatic cancer. Twenty-six patients were assigned to Group 1 to receive both KLTi and gemcitabine while 12 patients were assigned to Group 2 to receive only gemcitabine.\nAll patients received marketed gemcitabine, which was administered at 1000 mg/m^2 over a minimum of 30 min and a maximum of 38 min once weekly for 3 weeks, followed by a rest period of 13 days before the next gemcitabine dose. Based on a chemotherapy cycle of 28 days (4 weeks), gemcitabine was given on Days 1, 8, and 15 of the 28-day cycle. For patients in Group 1, KLTi infusion was administered on each of Days 1-5 for each of those same 3 weeks (i.e., Days 1-5, Days 8-12 and Days 15-19). Patients were then rested for the remaining 9 days of the cycle (Days 20-28).\nDosing of Group 1 patients included administration of KLTi at a dose of 30 g/day provided as a 300 mL volume. For the first 2 KLTi infusions for each patient, the infusion rate was started at 1.0 mL/min for the first 15 min, and then increased to 150 mL/hr until the KLTi was completely infused if no safety issues were apparent. Once safety was established in the first 2 infusions, all subsequent KLTi infusions were given at a target rate of 150 m L/hr. Beginning with cycle 2, the target rate of infusion may, however, have been increased to […]. The total infusion time for 300 mL of KLTi was therefore expected to be approximately 2 hr for Cycle 1 and approximately 90 min for all remaining cycles.\nProgression Free Survival (PFS) was calculated from the date of randomization to the date of objective disease progression or death. Patients without objective disease progression or death were censored at their last evaluable tumor assessment. […] This significant increase in PFS in Group 1 as compared to Group 2 is indicative of the significant advantage of administering KLTi in combination to gemcidabine as compared to administering gemcidabine alone to treat pancreatic cancer."}, "[4]": {"tested_on": "advanced or metastatic adenocarcinoma of the pancreas", "details": "first-line therapy; P=0.003; cited from earlier work"}, "[5]": {"tested_on": "advanced or metastatic pancreatic carcinomas", "details": "erlotinib versus placebo, with gemcitabine; cited from earlier work"}, "[6]": {"details": "RECIST 1.1, Efficacy Evaluable Population, n (%)"}, "[7]": {"details": "RECIST 1.1, Intent To Treat Population, n (%)"}}}
{"smiles": "Nc1ccn([C@@H]2O[C@H](CO)[C@@H](O)C2(F)F)c(=O)n1", "note": "[Gemcidabine, gemcitabine]", "values": [{"measurement": "alive at the end of the first year", "setting": "[1]", "value": 22, "unit": "%"}, {"measurement": "median overall survival", "setting": "[2]", "value": 6.8, "unit": "months"}, {"measurement": "PFS Rate 1 month", "setting": "[3]; 1 month", "value": 75, "unit": "%"}, {"measurement": "PFS Rate 1 year", "setting": "[3]; 1 year", "value": 8.3, "unit": "%"}, {"measurement": "PFS Rate 3 months", "setting": "[3]; 3 months", "value": 25, "unit": "%"}, {"measurement": "PFS Rate 4 months", "setting": "[3]; 4 months", "value": 25, "unit": "%"}, {"measurement": "PFS Rate 6 months", "setting": "[3]; 6 months", "value": 8.3, "unit": "%"}, {"measurement": "Median PFS", "setting": "[3]; Progression Free Survival, randomization to objective progression or death, KLTi 30 g/day IV Days 1-5, 8-12, 15-19 with gemcitabine 1000 mg/m^2 Days 1, 8, 15 of 28-day cycle", "value": 57.5, "unit": "days"}, {"measurement": "CR + PR (%)", "setting": "[3]; [6]", "value": "1 (11.1%)"}, {"measurement": "Complete Response (CR)", "setting": "[3]; [6]", "value": "0 (0%)"}, {"measurement": "Partial Response (PR)", "setting": "[3]; [6]", "value": "1 (11.1%)"}, {"measurement": "Progressive Disease (PD)", "setting": "[3]; [6]", "value": "6 (66.7%)"}, {"measurement": "Complete Response (CR)", "setting": "[3]; [7]", "value": "0 (0%)"}, {"measurement": "Partial Response (PR)", "setting": "[3]; [7]", "value": "1 (7.7%)"}, {"measurement": "Progressive Disease (PD)", "setting": "[3]; [7]", "value": "6 (46.2%)"}, {"measurement": "1-year survival", "setting": "[4]", "value": 18, "unit": "%"}, {"measurement": "1-year survival rate", "setting": "[5]", "value": 17, "unit": "%"}, {"measurement": "median survival", "setting": "[5]", "value": 5.9, "unit": "months"}]}
{"smiles": "O=c1[nH]cc(F)c(=O)[nH]1", "note": "[5-FU, fluorouracil]", "values": [{"measurement": "1-year survival", "setting": "[4]", "value": 2, "unit": "%"}]}
